Results reported in ChEMBL document CHEMBL1147277, “Pentagalloylglucose, a xanthine oxidase inhibitor from a Paraguayan crude drug, "Molle-i" (Schinus terebinthifolius)” (J Nat Prod, 1989).
pIC50, pKi: −log10 of the molar value.

Experiments:
[1] = target: T1, Xanthine dehydrogenase/oxidase (Bos taurus, UniProt P80457); experiment: Inhibition of cow milk xanthine oxidase by Lineweaver-Burke plot analysis; details: read-out: Activity
[2] = target: T1, Xanthine dehydrogenase/oxidase; experiment: Inhibition of cow milk xanthine oxidase

T1 sequence (P80457 whole entry): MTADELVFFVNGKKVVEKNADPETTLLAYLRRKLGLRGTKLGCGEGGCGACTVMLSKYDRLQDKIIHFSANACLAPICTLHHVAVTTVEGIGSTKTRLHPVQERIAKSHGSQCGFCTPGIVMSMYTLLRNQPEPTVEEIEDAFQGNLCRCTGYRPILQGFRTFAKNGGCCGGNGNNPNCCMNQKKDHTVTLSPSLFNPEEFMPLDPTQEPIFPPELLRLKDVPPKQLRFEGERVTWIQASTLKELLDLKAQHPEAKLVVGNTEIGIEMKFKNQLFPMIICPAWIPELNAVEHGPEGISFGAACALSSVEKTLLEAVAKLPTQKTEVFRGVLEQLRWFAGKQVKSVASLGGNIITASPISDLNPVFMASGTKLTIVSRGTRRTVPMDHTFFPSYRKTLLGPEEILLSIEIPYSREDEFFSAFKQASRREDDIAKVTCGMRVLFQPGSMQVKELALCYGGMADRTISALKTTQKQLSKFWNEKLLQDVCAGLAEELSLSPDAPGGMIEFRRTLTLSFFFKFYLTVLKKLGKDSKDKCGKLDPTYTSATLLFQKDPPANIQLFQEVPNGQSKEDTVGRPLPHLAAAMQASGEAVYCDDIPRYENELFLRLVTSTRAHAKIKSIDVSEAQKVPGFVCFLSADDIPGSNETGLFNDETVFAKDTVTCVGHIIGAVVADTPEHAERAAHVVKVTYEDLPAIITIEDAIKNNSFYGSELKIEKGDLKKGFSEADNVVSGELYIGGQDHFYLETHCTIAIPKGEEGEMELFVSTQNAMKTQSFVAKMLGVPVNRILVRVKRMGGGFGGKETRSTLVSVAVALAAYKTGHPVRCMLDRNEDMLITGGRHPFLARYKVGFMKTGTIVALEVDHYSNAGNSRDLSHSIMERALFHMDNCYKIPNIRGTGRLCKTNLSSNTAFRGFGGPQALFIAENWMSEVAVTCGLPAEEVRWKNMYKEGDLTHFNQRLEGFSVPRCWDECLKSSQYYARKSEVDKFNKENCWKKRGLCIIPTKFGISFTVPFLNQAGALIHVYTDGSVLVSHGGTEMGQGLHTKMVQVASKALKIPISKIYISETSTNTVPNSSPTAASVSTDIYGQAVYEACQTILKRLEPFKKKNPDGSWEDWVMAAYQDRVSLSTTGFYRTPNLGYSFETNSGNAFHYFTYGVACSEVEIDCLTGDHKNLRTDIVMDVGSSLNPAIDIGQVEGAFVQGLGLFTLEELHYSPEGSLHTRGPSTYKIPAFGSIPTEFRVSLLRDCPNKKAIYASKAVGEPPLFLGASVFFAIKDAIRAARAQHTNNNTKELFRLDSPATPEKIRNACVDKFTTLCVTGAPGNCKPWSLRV

Structure (SMILES): O=C(OC[C@H]1O[C@@H](OC(=O)c2cc(O)c(O)c(O)c2)[C@H](OC(=O)c2cc(O)c(O)c(O)c2)[C@@H](OC(=O)c2cc(O)c(O)c(O)c2)[C@@H]1OC(=O)c1cc(O)c(O)c(O)c1)c1cc(O)c(O)c(O)c1 [PENTAGALLOYL GLUCOSE]
- pKi [1]: 5.67
- pIC50 [2]: 5.49
